Measured values as given in patent US9179682B2, “Biocides and apparatus” (A.Y. Laboratories Ltd., priority 2004, dated 2015).

Experiment: Reduction of Na2S: total sulfur and sulfate after addition of oxidizer, Series 7
Conditions: 100 ml DI water with ~5 mg sodium sulfide; several days after addition of oxidizer
Description: A series of containers each containing 100 ml DI water in which ˜5 mg of sodium sulfide was dissolved were prepared. To each container an appropriate amount of an oxidizer or a control solution was added as follows: • a. […] Monochloroamine (MCA) formed from ammonium sulfate and NaOCl (1:1 molar ratio, each component pre-diluted before mixing, 15 ppm as total chlorine). • d.
Samples were analyzed for total sulfur and for sulfate several days after addition of oxidizer.

O=N[O-].[Na+] [Test A, NaNO2]
% S remaining: 100%
